The target of data set [1] is T1, full-length His6-JMJD6 (Homo sapiens, UniProt Q6NYC1).
T1 construct: An enzyme mixture (10 μL) containing full-length His6-JMJD6 (5 μM; final concentration: 0.05 μM); made in house; host or cells: Escherichia coli BL21 (DE3), pET-28a(+) plasmid
Put plainly: SPE-MS kinetics of JMJD6-catalysed lysyl hydroxylation (2OG, Fe(II), LAA, BRD-derived peptides). It counts as biochemical. The settings on record: for K m: read-out: Michaelis constant Km (K^app m); for turnover number kcat (k^app cat) / catalytic efficiency kcat/Km: pH 7.5; for turnover number kcat (k^app cat): calculated from v^app max assuming active JMJD6 = total enzyme; for substrate inhibition of JMJD6 catalysis: high substrate concentrations (>2 μM). As for the experimental part:
Recombinant human JMJD6 (full length with a N-terminal His6-tag) was produced in Escherichia coli BL21 (DE3) cells using a pET-28a(+) plasmid and purified by standard Ni(II)-affinity size-exclusion chromatography, as previously reported.[40] […] Purified JMJD6 was stored at −78 °C; fresh aliquots were used for all JMJD6 assays.
Peptides were used as 10 mM stock solutions in DMSO (Sigma-Aldrich; BioUltra grade).
(§1) Assay samples were aspirated under vacuum for 0.4 s, then loaded onto a C4 solid phase extraction (SPE) cartridge. After loading, the C4 SPE cartridge was washed with 0.1%v/v aqueous formic acid to remove non-volatile buffer salts (5 s, 1.5 mL min^−1). The peptide was eluted from the SPE cartridge with 0.1%v/v aqueous formic acid in 75/25v/v acetonitrile/water into the mass spectrometer (5 s, 1.6 mL min^−1) and the SPE cartridge re-equilibrated with 0.1%v/v aqueous formic acid (1 s, 1.25 mL min^−1).
Peaks corresponding to the m/z +5 charge states of the BRD-derived substrate peptide and the hydroxylated product peptides were extracted from the ion chromatogram and integrated using RapidFire Integrator 4.3.0 (Agilent). Peak area data were exported into Microsoft Excel and used to calculate the relative abundance of the mono-hydroxylated product peptide using the following equation: […]
The concentration of the mono-hydroxylated product peptide was calculated by multiplying the %-fraction of the mono-hydroxylated product peptide by the initial concentration of the substrate peptide employed in the assay. Initial reaction velocities were then calculated and fitted to a Michaelis–Menten plot using nonlinear regression (GraphPad Prism 5).

In a further data set the test system is KDM4C. Set-up: method as in PMID 21859681. The settings on record: KDM4C (0.5 μM); SPE-MS; cited from earlier work.
In a further data set the test system is PHD2. Set-up: method as in PMID 18952043. The settings on record: PHD2 (1.0 nM); FRET assay; cited from earlier work.
Data set [2] can be described thus: retention on SPE cartridges. It is filed as physicochemical. Particulars: for retention on SPE cartridge: C4 SPE cartridge; for retention on SPE cartridges: SR protein fragments, attributed to high basicity.
Text: as §1, with “The JMJD6-catalysed hydroxylation of the BRD-derived substrate peptide was monitored at ambient temperature by SPE-MS using a RapidFire RF 365 high-throughput sampling robot (Agilent) attached to an iFunnel Agilent 6550 accurate mass quadrupole time-of-flight (Q-TOF) mass spectrometer, which was operated in the positive ionization mode. Assay” for “Assay”

For data set [3], the target named is T1, full-length His6-JMJD6. Put plainly: SPE-MS time-course of JMJD6-catalysed hydroxylation of BRD-derived peptides. It counts as biochemical. Particulars: 0.05 μM JMJD6, 2 μM peptide, 2OG 200 μM, FAS 2 μM, LAA 100 μM, Tris 50 mM pH 7.5; for number of hydroxylation products observed (+16 Da mass shifts): initial time-course, n = 3; for hydroxylation by JMJD6 (in words): time-course, SPE-MS. The protocol:
Fig. 2 JMJD6-catalysed hydroxylation of homologous 40 mer peptides derived from bromodomain-containing proteins BRD2, BRD3, and BRD4. (a)–(c) Red MS spectra: JMJD6-catalysed hydroxylation after 10 min of (a) BRD2_520–559, (b) BRD3_463–502, and (c) BRD4_511–550. Black MS spectra: no enzyme controls. (d)–(f) JMJD6-catalysed hydroxylation of (d) BRD2_520–559, (e) BRD3_463–502, and (f) BRD4_511–550 showing the relative abundance of the non-hydroxylated substrate (orange circles), mono-hydroxylated product (green squares), di-hydroxylated product (purple triangles) and tri-hydroxylated product (light blue diamonds) over time. Data are means of three independent runs (n = 3; means ± SD).
as §1, with “The JMJD6-catalysed hydroxylation of the BRD-derived substrate peptide was monitored at ambient temperature by SPE-MS using a RapidFire RF 365 high-throughput sampling robot (Agilent) attached to an iFunnel Agilent 6550 accurate mass quadrupole time-of-flight (Q-TOF) mass spectrometer, which was operated in the positive ionization mode. Assay” for “Assay”
Peaks corresponding to the m/z +5 charge states of the BRD-derived substrate peptide and the hydroxylated product peptides were extracted from the ion chromatogram and integrated using RapidFire Integrator 4.3.0 (Agilent). Peak area data were exported into Microsoft Excel and used to calculate the relative abundance of the mono-hydroxylated product peptide using the following equation:
% of mono-hydroxylated product peptide = 100 × (integral of mono-hydroxylated product peptide)/(integral of non-hydroxylated substrate peptide + sum of integrals of all hydroxylated product peptides). Note that for the time-period used to calculate initial reaction velocities, negligible amounts of multi-hydroxylated product peptide were observed (<5%); therefore, the sum of integrals of all hydroxylated product peptides ≈ the integral of the mono-hydroxylated product peptide.

Another data set has as its system His6-JMJD6_1–362. Particulars: MALDI-TOF MS; His6-JMJD6_1–362 (10 μM), 2OG (500 μM); cited from earlier work.
For a further data set, the system named is NO66_183–641. Set-up: method as in PMID 34843649. The settings on record: NO66_183–641 (0.3 μM); SPE-MS; cited from earlier work.
[4] abbreviates: BRD peptide substrate varied, 0.05 μM full-length His6-JMJD6, 2OG 200 μM, FAS 2 μM, LAA 100 μM, 50 mM Tris pH 7.5, ambient temperature, substrate inhibition fit, mean ± SD n = 3.
Setting [5] is: BRD peptide substrate varied, 0.05 μM full-length His6-JMJD6, 2OG 200 μM, SPE-MS, n = 3.

“Also recorded” adds a separate entry of the source. Non-standard residues stand in square brackets, D forms with d. No end group written: not given here. *: point of attachment. Biotin = O=C1N[C@H]2[C@H](CS[C@H]2CCCCC(=O)*)N1; Lys(Me3) = C[N+](C)(C)CCCC[C@H](N)C(=O)O

In the case of `O=C1O[C@H]([C@@H](O)CO)C(O)=C1O` [LAA, L-ascorbic acid], the “effect of LAA addition on JMJD6 catalysis” value at full-length His6-JMJD6 [1] (50 nM JMJD6, 2OG 200 μM, FAS 2 μM, BRD4_511–550 2 μM, LAA varied, Tris pH 7.5, n = 3) is “beneficial effect on JMJD6 catalysis; also recorded: not essential for productive JMJD6 catalysis; also recorded: significantly enhanced levels of JMJD6 catalysis”.

Turning to “ARTAQTAR[Lys(Me3)]STGGIA [a histone 3 K9(me3) derivative, KDM4C substrate]”, in the data set with KDM4C, the “K m (substrate)” value was 5.8 ± 0.7 µM, the “k cat (substrate)” value is 0.089 ± 0.004 s⁻¹ and the “k cat/Km (substrate)” value was 15400 ± 1900 M⁻¹ s⁻¹.

For the compound “Biotin-DLEMLAPYIPMDDDFQL [HIF-1α-derived PHD2 substrate]”, the “K m (substrate)” value in the data set with PHD2 was 7.3 ± 1.3 µM.

Regarding “LAELQEQLKAVHEQLAALSQAPVNKPKKKKEKKEKEKKKK [BRD3_463–502, 40-mer peptide fragment derived from human BRD3, JMJD6 substrate, prepared by SPPS]”, on full-length His6-JMJD6 [1] (BRD peptide substrate varied, 0.05 μM full-length His6-JMJD6, 2OG 200 μM, FAS 2 μM, LAA 100 μM, 50 mM Tris pH 7.5, ambient temperature, mono-hydroxylation, substrate inhibition fit, mean ± SD n = 3), the “apparent maximum velocity v^app max” value is 5.2 ± 1.3 nM/s. The K m at full-length His6-JMJD6 [1] (setting [4]) was determined as 1.2 ± 0.4 µM. Also, on full-length His6-JMJD6 [1] (setting [5]), the “turnover number kcat (k^app cat)” value is 0.10 ± 0.02 s⁻¹ and the “catalytic efficiency kcat/Km” value was determined as 87000 ± 38000 M⁻¹ s⁻¹. Besides, the “kcat/Km compared with BRD4_511–550 (fold less)” value on full-length His6-JMJD6 [1] (SPE-MS, JMJD6 0.05 μM) is recorded as around 2 fold. Besides, on full-length His6-JMJD6 [1], the “substrate inhibition of JMJD6 catalysis” value is listed as “inhibit JMJD6 catalysis”. For the same compound, the “retention on SPE cartridge” value in data set [2] is listed as “efficiently retained on a C4 SPE cartridge”. Moreover, on full-length His6-JMJD6 [3], the “number of hydroxylation products observed (+16 Da mass shifts)” value is “two” and the “hydroxylation by JMJD6 (in words)” value is “efficiently hydroxylated by isolated recombinant JMJD6; also recorded: multiple hydroxylations”.

With “LAELQEQLRAVHEQLAALSQGPISKPKRKREKKEKKKKRK [BRD2_520–559, 40-mer peptide fragment derived from human BRD2, JMJD6 substrate, prepared by SPPS]”, the K m on full-length His6-JMJD6 [1] (setting [4]) turned out to be 0.89 ± 0.33 µM. Further, at full-length His6-JMJD6 [1] (setting [5]), the “turnover number kcat (k^app cat)” value is 0.24 ± 0.05 s⁻¹ and the “catalytic efficiency kcat/Km” value turned out to be 270000 ± 110000 M⁻¹ s⁻¹. Moreover, the “substrate inhibition of JMJD6 catalysis” value at full-length His6-JMJD6 [1] is “inhibit JMJD6 catalysis”. In addition, the “retention on SPE cartridge” value in data set [2] is given as “efficiently retained on a C4 SPE cartridge”. At full-length His6-JMJD6 [3], the “number of hydroxylation products observed (+16 Da mass shifts)” value was “three” and the “hydroxylation by JMJD6 (in words)” value is recorded as “efficiently hydroxylated by isolated recombinant JMJD6; also recorded: multiple hydroxylations”.

With “NPKRSRSREHRR [LUC7L2_267–278, reported JMJD6 substrate peptide from Luc7-like 2]”, in the data set on His6-JMJD6_1–362, the K m is 51.0 ± 4.6 µM, the k cat is 0.011 s⁻¹ and the “k cat/Km” value is 220 M⁻¹ s⁻¹. For the same compound, the “retention on SPE cartridges” value in data set [2] is given as “poor retention on SPE cartridges”.

Take RPL8_205–224: NO66 substrate: the “K m (substrate)” value with NO66_183–641 is 19.1 ± 6.3 µM.

Regarding RSKKRKKSKSRS [RBM39_31–42], in the data set on His6-JMJD6_1–362, the K m was 56.0 ± 9.6 µM, the k cat is 0.028 s⁻¹ and the “k cat/Km” value is 400 M⁻¹ s⁻¹. Moreover, the “retention on SPE cartridges” value in data set [2] was “poor retention on SPE cartridges”.

For “RSKSPRRRRSHSR [SRSF11_286–298, reported JMJD6 substrate peptide from serine/arginine-rich splicing factor 11]”, in the data set on His6-JMJD6_1–362, the K m was 41.0 ± 6.6 µM, the k cat is 0.008 s⁻¹ and the “k cat/Km” value was 200 M⁻¹ s⁻¹. Further, the “retention on SPE cartridges” value in data set [2] is “poor retention on SPE cartridges”.

Regarding “SRDHKRSRSRERRRS [CROP311–325, reported JMJD6 substrate peptide from cisplatin resistance-associated protein]”, in the data set on His6-JMJD6_1–362, the K m is 71.0 ± 7.2 µM, the k cat was 0.019 s⁻¹ and the “k cat/Km” value was 270 M⁻¹ s⁻¹. In addition, in data set [2], the “retention on SPE cartridges” value is recorded as “poor retention on SPE cartridges”.

In the case of “SRSRSRDRKRRSRSRDR [U2AF65_30–46, reported JMJD6 substrate peptide from U2 small nuclear RNA auxiliary factor 2]”, in the data set with His6-JMJD6_1–362, the K m is 78.0 ± 15.0 µM, the k cat was 0.009 s⁻¹ and the “k cat/Km” value was 120 M⁻¹ s⁻¹. The “retention on SPE cartridges” value in data set [2] is “poor retention on SPE cartridges”.
